Results as given in patent US9066861B2 (priority 2009, dated 2015).

Tests used:
Type in all cases: physicochemical
[1] = Assay (%) test of APIs in cream, stability study, HPLC method
Protocol: The stability of the product is confirmed by the stability studies performed for 3/6 months as per ICH guidelines.
APIs-stability experiments were carried out (see tables 3-20) using several products that are representative of the present invention. Tests were carried out to observe (or measure as appropriate) the physical appearance of the product, the pH value and assay of the APIs over a period of time. […] Betamethasone Valerate—0.12% (w/w) • ii. Fluticasone Propionate—0.05% (w/w) • iii. Mometasone Furoate—0.1% (w/w) • iv. Dexamethasone Acetate—0.1% (w/w) • v. Hydrocortisone Acetate—1.0% (w/w) • vi. Clobetasol Propionate—0.05% (w/w) • vii. Beclomethasone Dipropionate—0.025% (w/w) • viii. Betamethasone Dipropionate—0.05% (w/w) wherein all percentages are with respect to the final formulation.
The product used for the Stability Studies tests contained approximately 10% extra APIs (overages).

[2] = Stability analysis of raw API by titration method (BP); conditions: after 3 Months
Excerpt: (§1) In both studies the * Initial denotes the results of the samples tested at the time of receipt of the API from the supplier.

[3] = Stability analysis of raw API by stability indicating HPLC method; conditions: for Assay (%) HPLC / Percentage Drop (%) HPLC / loss in 3 Months: raw API; for Assay (%) HPLC / Percentage Drop (%) HPLC: after 3 Months
Excerpt: as §1

CC(=O)O[C@H]1C[C@@]2(C)[C@@H](C[C@@H](O)[C@H]3[C@@]4(C)CC[C@@H](O)[C@@H](C)[C@@H]4CC[C@@]32C)/C1=C(\CCC=C(C)C)C(=O)O [Fusidic acid]
Assay (%) ([1]; in cream Batch No. SFD-01, 30° C. 65% RH, 3rd Month): 108.32% | Assay (%) ([1]; in cream Batch No. SFD-01, 40° C. 75% RH, 1st Month): 108.58% | Assay (%) ([1]; in cream Batch No. SFD-01, 40° C. 75% RH, 2nd Month): 108.44% | Assay (%) ([1]; in cream Batch No. SFD-01, 40° C. 75% RH, 3rd Month): 108.30% | Assay (%) ([1]; in cream Batch No. SFD-01, Freezthaw, 1st Month): 108.41% | Assay (%) ([1]; in cream Batch No. SFD-01, Initial): 108.62% | Assay (%) ([1]; in cream Batch No. SFD-01, Temperature cycling, 1st Month): 108.52% | Assay (%) ([1]; in cream Batch No. SFM-01, 25° C. 60% RH, 1st Month): 108.24% | Assay (%) ([1]; in cream Batch No. SFM-01, 25° C. 60% RH, 2nd Month): 108.22% | Assay (%) ([1]; in cream Batch No. SFM-01, 25° C. 60% RH, 3rd Month): 108.20% | Assay (%) ([1]; in cream Batch No. SFM-01, 25° C. 60% RH, 6th Month): 107.95% | Assay (%) ([1]; in cream Batch No. SFM-01, 30° C. 65% RH, 1st Month): 108.23% | Assay (%) ([1]; in cream Batch No. SFM-01, 30° C. 65% RH, 2nd Month): 108.21% | Assay (%) ([1]; in cream Batch No. SFM-01, 30° C. 65% RH, 3rd Month): 108.16% | Assay (%) ([1]; in cream Batch No. SFM-01, 30° C. 65% RH, 6th Month): 107.92% | Assay (%) ([1]; in cream Batch No. SFM-01, 40° C. 75% RH, 1st Month): 108.26% | Assay (%) ([1]; in cream Batch No. SFM-01, 40° C. 75% RH, 2nd Month): 108.14% | Assay (%) ([1]; in cream Batch No. SFM-01, 40° C. 75% RH, 3rd Month): 108.08% | Assay (%) ([1]; in cream Batch No. SFM-01, 40° C. 75% RH, 6th Month): 107.89% | Assay (%) ([1]; in cream Batch No. SFM-01, Freezthaw, 1st Month): 108.11% | Assay (%) ([1]; in cream Batch No. SFM-01, Initial): 108.27% | Assay (%) ([1]; in cream Batch No. SFM-01, Temperature cycling, 1st Month): 107.63% | Assay (%) ([1]; in cream Batch No. SPC-01, 25° C. 60% RH, 1st Month): 108.30% | Assay (%) ([1]; in cream Batch No. SPC-01, 25° C. 60% RH, 2nd Month): 108.24% | Assay (%) ([1]; in cream Batch No. SPC-01, 25° C. 60% RH, 3rd Month): 108.15% | Assay (%) ([1]; in cream Batch No. SPC-01, 25° C. 60% RH, 6th Month): 108.08% | Assay (%) ([1]; in cream Batch No. SPC-01, 30° C. 65% RH, 1st Month): 108.31% | Assay (%) ([1]; in cream Batch No. SPC-01, 30° C. 65% RH, 2nd Month): 108.32% | Assay (%) ([1]; in cream Batch No. SPC-01, 30° C. 65% RH, 3rd Month): 108.22% | Assay (%) ([1]; in cream Batch No. SPC-01, 30° C. 65% RH, 6th Month): 108.11% | Assay (%) ([1]; in cream Batch No. SPC-01, 40° C. 75% RH, 1st Month): 108.33% | Assay (%) ([1]; in cream Batch No. SPC-01, 40° C. 75% RH, 2nd Month): 108.24% | Assay (%) ([1]; in cream Batch No. SPC-01, 40° C. 75% RH, 3rd Month): 108.10% | Assay (%) ([1]; in cream Batch No. SPC-01, 40° C. 75% RH, 6th Month): 108.01% | Assay (%) ([1]; in cream Batch No. SPC-01, Freezthaw, 1st Month): 108.22% | Assay (%) ([1]; in cream Batch No. SPC-01, Initial): 108.38% | Assay (%) ([1]; in cream Batch No. SPC-01, Temperature cycling, 1st Month): 108.28% | Assay (%) Titration ([2]; 45° C. (C) closed Petri dish): 99.10% | Percentage Drop (%) Titration ([2]; 45° C. (C) closed Petri dish): 1.50% | Assay (%) Titration ([2]; 45° C. (O) open Petri dish): 98.52% | Percentage Drop (%) Titration ([2]; 45° C. (O) open Petri dish): 2.08% | Assay (%) Titration ([2]; RT (C) closed Petri dish): 99.02% | Percentage Drop (%) Titration ([2]; RT (C) closed Petri dish): 1.58% | Assay (%) Titration ([2]; RT (O) open Petri dish): 99.21% | Percentage Drop (%) Titration ([2]; RT (O) open Petri dish): 1.39% | Initial (%) ([3]; raw API tested at the time of receipt from the supplier, method not stated): 100.6% | Assay (%) HPLC ([3]; 45° C. (C) closed Petri dish): 92.12% | Percentage Drop (%) HPLC ([3]; 45° C. (C) closed Petri dish): 8.48% | Assay (%) HPLC ([3]; 45° C. (O) open Petri dish): 89.52% | Percentage Drop (%) HPLC ([3]; 45° C. (O) open Petri dish): 11.08% | loss in 3 Months ([3]; 45° C. (open condition)): about 11% | Assay (%) HPLC ([3]; RT (C) closed Petri dish): 94.37% | Percentage Drop (%) HPLC ([3]; RT (C) closed Petri dish): 6.23% | Assay (%) HPLC ([3]; RT (O) open Petri dish): 92.93% | Percentage Drop (%) HPLC ([3]; RT (O) open Petri dish): 7.67% | loss in 3 Months ([3]; room temperature (open condition)): about 7.7% | stability as an API, Sodium Fusidate compared with Fusidic acid ([3]; raw APIs, Tables 1 and 2): deteriorates more rapidly than Sodium Fusidate
